Experimental data taken from patent US20220168472A1, “ENZYME-DEGRADABLE HYDROGEL FOR DELIVERY OF A PAYLOAD” (priority 2019, published 2022).

How the values were obtained:
[1] = tested on: human corneal epithelial cells (HCEpCs); test: PDMS stencil wound assay, HCEpCs, bolus HA or MMP-9; assay type: cell-based; conditions: for increase of wound healing rate: 0.1-0.6 mg/mL
Procedure: HCEpCs were cultured in a T-25 flask with keratinocyte serum-free media supplemented with keratinocyte growth serum and penicillin/streptomycin (KM; Sciencell) that was changed every other day. The SV-40 immortalized HCEpCs were generously donated from a collaborator (for example, see: F. Li, M. Griffith, Z. Li, S. Tanodekaew, H. Sheardown, M. Hakim, and D. J. Carlsson, “Recruitment of multiple cell lines by collagen-synthetic copolymer matrices in corneal regeneration,” Biomaterials, vol. 26, no. 16, pp. 3093-3104, 2005 Jun. 1, doi: https://doi.org/10.1016/j.biomaterials.2004.07.063; and/or M. Griffith, R. Osborne, R. Munger, X. Xiong, C. J. Doillon, N. L. C. Laycock, M. Hakim, Y. Song, and M. A. Watsky, “Functional Human Corneal Equivalents Constructed from Cell Lines,” Science, vol. 286, no. 5447, pp. 2169-2172, 1999, doi: 10.1126/science.286.5447.2169, the entire contents of which are incorporated herein by reference). Once confluence was reached, the HCEpCs were passaged in 2 ml of TrypLE Express (GIBCO, Life Technologies, Thermo Scientific) and subcultured for the wound assay as described previously. The HCEpCs were cultured with KM until a monolayer had formed. Wound assays were conducted as described above for RCEpCs. The well was then rinsed with PBS and replaced with KM. Images were taken daily to observe the closure of the wound and graphs were generated using GraphPad Prism 6.
(§1) To validate the wound assays 200 kDa hyaluronic acid (151-300 kDa HA; Lifecore Biomedicals) were added to the media of both RCEpC and HCEpC PDMS wound assays. Once the wound assays were validated, the efficacy of medium sized 60 kDa HA (66-99 kDa; Lifecore Biomedicals) was investigated. Various concentrations of 60 kDa HA were dissolved in KM and added as a bolus dosage to HCEpC wound assays. The media was changed daily until full closure of the wound. Images were taken daily to observe the closure of the wound and graphs were generated using GraphPad Prism 6.
(§2) To verify if the wound assay could provide a consistent initial wound area to two different corneal epithelial cell types, 1 mm diameter PDMS wound assays were performed with both rabbit corneal epithelial cells (RCEpCs; FIG. 20A) and human corneal epithelial cells (HCEpCs; FIG. 20B). Primary RCEpCs were initially used as they would behave similar to future in vivo rabbit studies. Healing of the wound varied between the two cell-types, with the primary RCEpC wound healing within 2 days and the HCEpC wound healing in 7 days (FIG. 20C). […] The improvement was narrowed to 21% (95.9%±6.9% wound closure) at 18.5 hours, compared to the control (74.9%±9.0%). […] HA was confirmed to be a potential drug due to its consistency among cell types, rapid ability to heal wounds, low minimum effective concentration, and cost efficiency.
Most literature assesses the effects of native high molecular weight HA and oligomer HA on epithelial wound healing. To obtain an ideal MMP-9 controlled release profile, the influence of mid-size 60 kDa HA on corneal wound healing was investigated. PDMS-stencil wound assays were conducted using 0.05, 0.1, 0.3, 0.6, or 1.0 mg/ml of 60 kDa HA treatments daily (FIG. 21A). A 250 ng/ml MMP-9 sample was included to observe the effects of the enzyme on wound healing, similar to an in vivo environment.

[2] = tested on: rabbit corneal epithelial cells (RCEpCs); test: PDMS stencil wound assay, RCEpCs, bolus HA; assay type: cell-based
Procedure: Primary rabbit corneal epithelial cells (Cell Biologics Inc.) were cultured using a T-25 flask in epithelial cell media supplemented with insulin-transferrin-selenium, epidermal growth factor, L-glutamine, antibiotic-antimycotic solution and fetal bovine serum (Cell Biologics Inc.). Once confluence was reached, the RCEpCs were briefly rinsed with PBS and passaged with trypsin-EDTA (GIBCO, Thermo Scientific). The cells were then sub-cultured on a 24-well plate surface pre-coated with a gelatin-based coating (Cell Biologics Inc.) containing a thin, punched out poly-dimethyl siloxane (PDMS) stencil adhered to the surface. The media was changed daily until a cell monolayer was formed. The PDMS disk stencil was then carefully removed from the surface. The well was then rinsed with PBS and replaced with epithelial cell media. Images were taken daily to observe the closure of the wound and graphs were generated using GraphPad Prism 6.
as §1, §2

Row | Substance | increase of wound healing rate ([1]; 60 hours) [%] | increase of wound healing rate ([1]; first 24 hours) [%] | wound healing compared to the control ([1]; 0.3, 0.6, and 0.05 mg/ml daily) | wound healing compared to the control ([1]; the other HA samples (of 0.05, 0.1, 0.3, 0.6, 1.0 mg/ml) daily) | improvement in wound healing relative to the control ([2]; 0.45 mg/ml HA, 4 hours) [%] | wound closure ([2]; 0.45 mg/ml HA, 4 hours) | improvement in wound healing relative to the control ([2]; 0.45 mg/ml HA, 18.5 hours) [%] | wound closure ([2]; 0.45 mg/ml HA, 18.5 hours) | improvement in wound healing relative to the control ([2]; 0.75 mg/ml HA, 12 hours) [%] | wound closure ([2]; 0.75 mg/ml HA, 12 hours) | improvement in wound healing relative to the control ([1]; 0.45 mg/ml HA, 33 hours) [%] | wound closure ([1]; 0.45 mg/ml HA, 33 hours) | improvement in wound healing relative to the control ([1]; 0.45 mg/ml HA, 59.5 hours) [%] | wound closure ([1]; 0.45 mg/ml HA, 59.5 hours) | improvement in wound healing relative to the control ([1]; 0.75 mg/ml HA, 18.5 hours) [%] | wound closure ([1]; 0.75 mg/ml HA, 18.5 hours) | improvement in wound healing relative to the control ([1]; 0.75 mg/ml HA, 59.5 hours) [%] | wound closure ([1]; 0.75 mg/ml HA, 59.5 hours)
1 | hyaluronic acid [60 kDa HA] | 24 | 40 | healed rapidly | slowed wound healing compared to the control |  |  |  |  |  |  |  |  |  |  |  |  |  | 
2 | hyaluronic acid [HA] |  |  |  |  | 149 | 36.4%±14.6% | 21 | 95.9%±6.9% | 35 | 64.9%±13.6% | 31 | 42.8%±7.2% | 19 | 81.8%±7.6% | 58 | 27.5%±7.1% | 26 | 86.5%±4.2%
